Assay results as given in publication PMC7932521, “2-aminobenzimidazoles for leishmaniasis: From initial hit discovery to in vivo profiling” (PLoS Neglected Tropical Diseases, 2021).

System: Leishmania infantum MHOM/MA(BE)/67/ITMAP263 amastigotes
Test: L. infantum intracellular amastigote assay in PMM
Format: cell-based
Details: Leishmania infantum, 120 h, intracellular amastigotes in PMM, 5 days; read-out: L. infantum IC50
Method: (§1) Leishmania infantum MHOM/MA(BE)/67/ITMAP263 amastigotes were collected from the spleen of infected donor Golden hamsters. Primary peritoneal mouse macrophages (PMM) were used as host cells for in vitro assays. PMM were collected from Swiss mice after 2 days of peritoneal stimulation with a 2% suspension of potato starch and maintained in RPMI-1640 medium supplemented with 200 mM L-glutamine, antibiotics and 5% FCS at 37°C and 5% CO2. Promastigotes of L. infantum chagasi (luciferase) (MHOM/BR/2005/NLC) obtained as described in Reimão et al.,[27] were grown in M199 medium supplemented with 10% FCS, 0.25% hemin, 32 μg/ml hygromycin and 2% sterile human urine at 25°C and 5% CO2.
(§2) Stock solutions of the compounds at 20 mM were prepared in 100% DMSO. Next, the compounds were serially pre-diluted in DMSO followed by a further dilution in demineralized water to assure a final in-test DMSO concentration below 1%. The compounds were tested at 4-fold dilutions starting at 64 μM.
For the antileishmania in vitro assays, 3×10^4 PMM/well were seeded in 96-well plates. After 24h, 5×10^5 amastigotes/well were added and incubated for 2h at 37°C. Next, the compounds in 4-fold serial dilutions were added and the plates were further incubated for 5 days (37°C, 5% CO2). Parasite burdens were assessed using an inverted microscope after Giemsa staining. The results were expressed as percent reduction in parasite burdens compared to negative control wells (100% growth) and IC50 values were determined. Values represent the geometric mean of at least two independent experiments. Miltefosine was used as the positive control in all plates.

Row | Compound | IC50 [µM]
1 | CC(C)(C)n1c(NC(=O)Cc2ccc(F)cc2)nc2cc(F)ccc21 [Compound 19, Fc1cc(nc(NC(=O)Cc2ccc(F)cc2)n3C(C)(C)C)c3cc1] | 19
2 | O=C(Cc1ccc(F)cc1)Nc1nc2ccc(F)cc2n1CC1CC1 [Compound 21, Fc1cc2c(nc(NC(=O)Cc3ccc(F)cc3)n2CC4CC4)cc1] | 8.1
3 | CCn1c(NC(=O)Cc2ccc(F)cc2)nc2ccc(F)cc21 [Compound 16, Fc1cc2c(nc(NC(=O)Cc3ccc(F)cc3)n2CC)cc1] | 4.4

Same assay, conditions: Leishmania infantum, S1 Data; read-out: L. infantum IC50

Row | Compound | IC50 [µM]
4 | O=C(Cc1ccc(Cl)cc1)Nc1nc2cc(F)ccc2[nH]1 [Compound 18, Fc1ccc([nH]c(NC(Cc2ccc(Cl)cc2)=O)n3)c3c1] | > 64
5 | CC(C)(C)n1c(NC(=O)Cc2ccc(F)cc2)nc2cc(F)ccc21 [Compound 19, Fc1cc(nc(NC(=O)Cc2ccc(F)cc2)n3C(C)(C)C)c3cc1] | 18.6
6 | O=C(Cc1ccc(F)cc1)Nc1nc2ccc(F)cc2n1CC1CC1 [Compound 21, Fc1cc2c(nc(NC(=O)Cc3ccc(F)cc3)n2CC4CC4)cc1] | 8.06
7 | CCn1c(NC(=O)Cc2ccc(F)cc2)nc2ccc(F)cc21 [Compound 16, Fc1cc2c(nc(NC(=O)Cc3ccc(F)cc3)n2CC)cc1] | 4.35

Same assay, conditions: intracellular amastigotes in PMM, 5 days

Row | Compound | L. infantum IC50
8 | O=C(Cc1ccc(Cl)cc1)Nc1nc2cc(F)ccc2[nH]1 [Compound 18, Fc1ccc([nH]c(NC(Cc2ccc(Cl)cc2)=O)n3)c3c1] | poor activity

System: PMM (Primary Mouse Macrophages)
Test: Cytotoxicity on primary peritoneal mouse macrophages
Format: cell-based
Details: Mus musculus, Macrophage, read-out: PMM IC50
Method: as §1, §2

Row | Compound | IC50 [µM]
9 | O=C(Cc1ccc(Cl)cc1)Nc1nc2cc(F)ccc2[nH]1 [Compound 18, Fc1ccc([nH]c(NC(Cc2ccc(Cl)cc2)=O)n3)c3c1] | > 64
10 | CC(C)(C)n1c(NC(=O)Cc2ccc(F)cc2)nc2cc(F)ccc21 [Compound 19, Fc1cc(nc(NC(=O)Cc2ccc(F)cc2)n3C(C)(C)C)c3cc1] | > 64
11 | O=C(Cc1ccc(F)cc1)Nc1nc2ccc(F)cc2n1CC1CC1 [Compound 21, Fc1cc2c(nc(NC(=O)Cc3ccc(F)cc3)n2CC4CC4)cc1] | > 64
12 | CCn1c(NC(=O)Cc2ccc(F)cc2)nc2ccc(F)cc21 [Compound 16, Fc1cc2c(nc(NC(=O)Cc3ccc(F)cc3)n2CC)cc1] | > 64

System: not listed separately
Test: MRC-5 cytotoxicity
Format: cell-based
Details: human, MRC-5 cells; S1 Data

Row | Compound | CC50 [µM]
13 | O=C(Cc1ccc(Cl)cc1)Nc1nc2cc(F)ccc2[nH]1 [Compound 18, Fc1ccc([nH]c(NC(Cc2ccc(Cl)cc2)=O)n3)c3c1] | > 64
14 | CC(C)(C)n1c(NC(=O)Cc2ccc(F)cc2)nc2cc(F)ccc21 [Compound 19, Fc1cc(nc(NC(=O)Cc2ccc(F)cc2)n3C(C)(C)C)c3cc1] | > 64
15 | O=C(Cc1ccc(F)cc1)Nc1nc2ccc(F)cc2n1CC1CC1 [Compound 21, Fc1cc2c(nc(NC(=O)Cc3ccc(F)cc3)n2CC4CC4)cc1] | 17.4
16 | CCn1c(NC(=O)Cc2ccc(F)cc2)nc2ccc(F)cc21 [Compound 16, Fc1cc2c(nc(NC(=O)Cc3ccc(F)cc3)n2CC)cc1] | > 64

System: not listed separately
Test: Experimental distribution coefficient (eLogD)
Format: physicochemical
Details: reverse stationary phase HPLC column (Ascentis RP-Amide), pH 7.4; S1 Data
Method: To determine the lipophilicity of the compounds, a methodology based on the retention time of molecules in reverse stationary phase (Ascentis RP-Amide HPLC column) was used. The chromatogram was obtained using LC-MS/MS. Test compounds were prepared at 1.0 μg/mL by adding the stock solution at (1:1) mobile phases A:B + internal standard at 200nM (A: 5% methanol in 10mM ammonium acetate pH 7.4, B: 100% methanol), DMSO concentration must be lower than 2%. […] The retention time (in minutes) of each of the eight standards was plotted against their LogD values. The resulting equation for the calibration curve (y = mx + b) was used to calculate the LogD values for the test compounds.

Row | Compound | chromatographic logD
17 | O=C(Cc1ccc(Cl)cc1)Nc1nc2cc(F)ccc2[nH]1 [Compound 18, Fc1ccc([nH]c(NC(Cc2ccc(Cl)cc2)=O)n3)c3c1] | 4.26
18 | CC(C)(C)n1c(NC(=O)Cc2ccc(F)cc2)nc2cc(F)ccc21 [Compound 19, Fc1cc(nc(NC(=O)Cc2ccc(F)cc2)n3C(C)(C)C)c3cc1] | 4.04
19 | O=C(Cc1ccc(F)cc1)Nc1nc2ccc(F)cc2n1CC1CC1 [Compound 21, Fc1cc2c(nc(NC(=O)Cc3ccc(F)cc3)n2CC4CC4)cc1] | 4.12
20 | CCn1c(NC(=O)Cc2ccc(F)cc2)nc2ccc(F)cc21 [Compound 16, Fc1cc2c(nc(NC(=O)Cc3ccc(F)cc3)n2CC)cc1] | 3.59

Same assay, conditions: reverse-phase HPLC retention (Ascentis RP-Amide column); experimental, pH 7.4

Row | Compound | chromatographic logD
21 | O=C(Cc1ccc(Cl)cc1)Nc1nc2cc(F)ccc2[nH]1 [Compound 18, Fc1ccc([nH]c(NC(Cc2ccc(Cl)cc2)=O)n3)c3c1] | 3.9
22 | CC(C)(C)n1c(NC(=O)Cc2ccc(F)cc2)nc2cc(F)ccc21 [Compound 19, Fc1cc(nc(NC(=O)Cc2ccc(F)cc2)n3C(C)(C)C)c3cc1] | 4

System: not listed separately
Test: Mouse liver microsomal stability
Format: in vitro ADME
Details: CD1, mouse, liver microsomes, pH 7.4, S1 Data; read-out: MLM CLint
Method: The metabolic stability of the compounds was evaluated in human (pool of 200 donors, XenoTech) and mouse liver microsomes (CD1 mouse, GIBCO). Test compounds were prepared at a concentration of 0.5 μM and incubated with 0.25 mg/mL liver microsomes at pH 7.4 and 37°C. The reaction was started by addition of NADPH at […]. Samples were taken at 0, 5, 10, 15, 20 and 30 minutes. The reaction was stopped by the addition of acetonitrile:methanol (1:1) containing an internal standard (tolbutamide at 50 nM). Compounds were quantified by liquid chromatography triple quadrupole mass spectrometry (LC-MS/MS). Peak area ratios (analyte/internal standard) were converted to % remaining using the area ratio at time 0 as 100%. Half-life (t1/2 = ln(2)/k) in minutes and intrinsic clearance (Clint = k x 1000/(0.25)) in μL/min/mg were calculated using a non-linear regression from % remaining versus incubation time. From this plot, the slope (k) was determined. The analysis conditions were: analytical column (Gemini C18, […], Phenomenex), electrospray ionization source (ESI) in positive and negative mode, mobile phase A (water + 0.1% formic acid) and B (acetonitrile + 0.1% formic acid), flow rate of 0.7 mL/min.

Row | Compound | microsomal CLint at 0.5 μM [µL/min/mg]
23 | O=C(Cc1ccc(Cl)cc1)Nc1nc2cc(F)ccc2[nH]1 [Compound 18, Fc1ccc([nH]c(NC(Cc2ccc(Cl)cc2)=O)n3)c3c1] | 366
24 | CC(C)(C)n1c(NC(=O)Cc2ccc(F)cc2)nc2cc(F)ccc21 [Compound 19, Fc1cc(nc(NC(=O)Cc2ccc(F)cc2)n3C(C)(C)C)c3cc1] | 373
25 | O=C(Cc1ccc(F)cc1)Nc1nc2ccc(F)cc2n1CC1CC1 [Compound 21, Fc1cc2c(nc(NC(=O)Cc3ccc(F)cc3)n2CC4CC4)cc1] | 887
26 | CCn1c(NC(=O)Cc2ccc(F)cc2)nc2ccc(F)cc21 [Compound 16, Fc1cc2c(nc(NC(=O)Cc3ccc(F)cc3)n2CC)cc1] | 538

System: not listed separately
Test: Parallel artificial membrane permeability assay (PAMPA)
Format: in vitro ADME
Details: PAMPA, S1 Data; read-out: PAMPA Pe
Method: To determine the passive permeability of the compounds, a 96-well plate containing membranes pre-coated with lipids (Corning Gentest # 353015) was used. The solutions of the compounds were prepared by diluting the stock solutions (10mM) in phosphate buffered saline (PBS) pH 6.5 at a final concentration of 10μM. The solutions diluted in PBS pH 6.5 were then added to the donor portion of the plate (300 μl/well), while PBS pH 7.4 (200 μl/well) was added to the acceptor portion. The two portions of the plate were then coupled, and the system was incubated for 5 h at 37°C. At the end of the incubation, samples were collected from the donor and acceptor plates, and then added to plates containing quench solution (10% water and 90% methanol: acetonitrile (50:50) + 50 nM tolbutamide). The final concentrations of compounds in the donor, acceptor, and initial solution (T0) wells were analyzed using LC-MS/MS. The results were used to calculate an effective permeability (Pe) value. The PAMPA assay was performed in triplicate (n = 3).

Row | Compound | Papp at 5 h, 10 μM [×10⁻⁶ cm/s]
27 | O=C(Cc1ccc(Cl)cc1)Nc1nc2cc(F)ccc2[nH]1 [Compound 18, Fc1ccc([nH]c(NC(Cc2ccc(Cl)cc2)=O)n3)c3c1] | 6.04
28 | CC(C)(C)n1c(NC(=O)Cc2ccc(F)cc2)nc2cc(F)ccc21 [Compound 19, Fc1cc(nc(NC(=O)Cc2ccc(F)cc2)n3C(C)(C)C)c3cc1] | 6.35
29 | O=C(Cc1ccc(F)cc1)Nc1nc2ccc(F)cc2n1CC1CC1 [Compound 21, Fc1cc2c(nc(NC(=O)Cc3ccc(F)cc3)n2CC4CC4)cc1] | 19.4
30 | CCn1c(NC(=O)Cc2ccc(F)cc2)nc2ccc(F)cc21 [Compound 16, Fc1cc2c(nc(NC(=O)Cc3ccc(F)cc3)n2CC)cc1] | 19.4
